Source: article PMC12508063, “Chloroindazole based estrogen receptor β ligands with favorable pharmacokinetics promote functional remyelination and visual recovery” (Scientific Reports, 2025)
Where “and” joins values, the source holds several entries; their conditions need not be identical. Equal values may be shown once. Where a name gives a salt, the structure may show the parent alone.

Key:
CYP2C9 = CYP2C9 (Homo sapiens, UniProt P11712); assay: CYP inhibition; settings: human
CYP2D6 = CYP2D6 (Homo sapiens, UniProt P10635); assay: CYP inhibition; settings: human, probe Dextromethorphan
ERα = biological target: T1, ERα (Homo sapiens, UniProt P03372); assay: ER reporter gene assay in HEK 293 T cells (ER-luciferase reporter); format: cell-based; settings: for Reporter gene assay raw data, ERa: 4 replicate columns
T1 construct: expressed in transfected cells; host or cells: HEK 293 T cells
T1 sequence (P03372 1-595): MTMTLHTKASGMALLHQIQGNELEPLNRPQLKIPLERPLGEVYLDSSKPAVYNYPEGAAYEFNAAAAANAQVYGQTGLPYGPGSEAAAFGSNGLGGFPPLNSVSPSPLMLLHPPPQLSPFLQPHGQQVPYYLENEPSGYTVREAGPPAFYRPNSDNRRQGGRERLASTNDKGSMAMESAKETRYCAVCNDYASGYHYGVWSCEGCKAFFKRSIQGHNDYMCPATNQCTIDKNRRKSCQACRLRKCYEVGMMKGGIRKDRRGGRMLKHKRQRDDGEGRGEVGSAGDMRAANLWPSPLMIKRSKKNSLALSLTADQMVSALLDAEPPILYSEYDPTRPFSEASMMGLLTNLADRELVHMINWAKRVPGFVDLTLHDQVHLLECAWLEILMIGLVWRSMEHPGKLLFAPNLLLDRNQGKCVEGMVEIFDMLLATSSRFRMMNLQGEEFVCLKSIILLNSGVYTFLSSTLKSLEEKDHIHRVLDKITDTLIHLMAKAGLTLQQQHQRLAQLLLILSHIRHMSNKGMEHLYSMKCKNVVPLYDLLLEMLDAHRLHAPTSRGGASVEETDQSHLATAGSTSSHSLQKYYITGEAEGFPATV

ERβ = biological target: T2, ERβ (Homo sapiens, UniProt Q92731); assay: as above; format: cell-based; settings: for Reporter gene assay raw data, ERb: ERb data block (head r19), 4 replicate columns; for ERb reporter gene assay raw data (response): four replicate columns per compound
T2 construct: expressed in transfected cells; host or cells: HEK 293 T cells

CYP3A4 = CYP3A4 (Homo sapiens, UniProt P08684); assay: in vitro
[1] = tested on: co-cultures of primary cortical neurons and OPCs; assay: Axon myelination in co-cultures of primary cortical neurons and OPCs; format: cell-based, mouse; settings: K102, K110 10 nM; Clemastine, Bazedoxifene 500 nM; 5 days
[2] = Stability in human plasma; format: in vitro ADME
[3] = Plasma protein binding (mouse)
[4] = Plasma protein binding (human)

T2 sequence (Q92731 whole entry, species assumed): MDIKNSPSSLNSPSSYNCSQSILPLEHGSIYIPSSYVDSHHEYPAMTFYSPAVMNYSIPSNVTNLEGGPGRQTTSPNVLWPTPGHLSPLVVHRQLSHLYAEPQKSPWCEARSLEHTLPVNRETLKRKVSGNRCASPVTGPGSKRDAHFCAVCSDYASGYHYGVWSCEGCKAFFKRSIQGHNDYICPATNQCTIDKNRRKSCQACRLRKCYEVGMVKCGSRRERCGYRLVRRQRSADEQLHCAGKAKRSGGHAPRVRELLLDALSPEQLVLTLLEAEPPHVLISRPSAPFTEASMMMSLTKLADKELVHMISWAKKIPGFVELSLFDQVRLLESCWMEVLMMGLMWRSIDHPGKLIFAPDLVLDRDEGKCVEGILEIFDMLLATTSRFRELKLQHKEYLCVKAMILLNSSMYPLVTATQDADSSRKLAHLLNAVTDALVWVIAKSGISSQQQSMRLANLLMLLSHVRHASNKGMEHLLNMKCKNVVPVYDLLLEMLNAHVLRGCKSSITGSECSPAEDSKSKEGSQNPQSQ
Sequence of CYP3A4 (P08684 whole entry): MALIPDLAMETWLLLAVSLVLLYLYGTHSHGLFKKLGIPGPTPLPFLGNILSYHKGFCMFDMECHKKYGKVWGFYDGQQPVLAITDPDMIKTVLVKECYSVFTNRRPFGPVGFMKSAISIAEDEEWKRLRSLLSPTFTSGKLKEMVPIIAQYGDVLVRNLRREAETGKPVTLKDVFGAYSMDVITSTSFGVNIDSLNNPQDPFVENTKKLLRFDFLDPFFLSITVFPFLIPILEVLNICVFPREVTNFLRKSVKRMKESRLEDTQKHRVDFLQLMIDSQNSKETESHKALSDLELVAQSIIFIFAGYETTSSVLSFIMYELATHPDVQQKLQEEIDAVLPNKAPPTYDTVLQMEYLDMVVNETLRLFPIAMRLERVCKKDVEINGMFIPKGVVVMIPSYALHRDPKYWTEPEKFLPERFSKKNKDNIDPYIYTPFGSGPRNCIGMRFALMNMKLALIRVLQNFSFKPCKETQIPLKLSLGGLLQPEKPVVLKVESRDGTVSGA
Sequence of CYP2C9 (P11712 whole entry): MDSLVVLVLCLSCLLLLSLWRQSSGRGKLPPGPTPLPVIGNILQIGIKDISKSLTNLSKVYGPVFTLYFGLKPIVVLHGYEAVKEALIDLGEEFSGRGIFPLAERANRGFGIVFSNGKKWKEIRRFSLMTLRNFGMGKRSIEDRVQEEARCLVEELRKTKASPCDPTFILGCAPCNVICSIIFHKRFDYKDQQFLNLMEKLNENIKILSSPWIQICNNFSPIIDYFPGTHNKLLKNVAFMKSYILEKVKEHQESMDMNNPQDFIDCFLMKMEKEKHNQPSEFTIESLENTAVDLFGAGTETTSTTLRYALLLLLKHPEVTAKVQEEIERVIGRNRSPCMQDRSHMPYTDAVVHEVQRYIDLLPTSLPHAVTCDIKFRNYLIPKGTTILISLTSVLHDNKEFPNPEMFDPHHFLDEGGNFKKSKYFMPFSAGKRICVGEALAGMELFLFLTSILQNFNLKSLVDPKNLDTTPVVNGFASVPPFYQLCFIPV
Sequence of CYP2D6 (P10635 whole entry): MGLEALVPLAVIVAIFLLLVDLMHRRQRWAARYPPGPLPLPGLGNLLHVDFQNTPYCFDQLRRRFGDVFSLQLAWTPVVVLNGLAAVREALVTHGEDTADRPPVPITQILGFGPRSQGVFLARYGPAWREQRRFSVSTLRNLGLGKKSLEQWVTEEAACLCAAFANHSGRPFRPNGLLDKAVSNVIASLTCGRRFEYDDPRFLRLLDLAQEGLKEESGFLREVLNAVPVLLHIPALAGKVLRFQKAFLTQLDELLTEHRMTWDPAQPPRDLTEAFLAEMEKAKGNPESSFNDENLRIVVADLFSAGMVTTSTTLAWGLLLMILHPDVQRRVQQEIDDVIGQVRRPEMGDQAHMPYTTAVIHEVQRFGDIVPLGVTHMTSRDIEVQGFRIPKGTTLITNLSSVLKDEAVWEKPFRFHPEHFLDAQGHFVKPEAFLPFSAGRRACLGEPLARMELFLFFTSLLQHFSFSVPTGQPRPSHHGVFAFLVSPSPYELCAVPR

Structure (SMILES): Nc1ccc(S(=O)(=O)Nc2ccnn2-c2ccccc2)cc1 [Sulfaphenazole]
- inhibition at 10 µM (CYP2C9): 93.9%

Structure (SMILES): C=C[C@H]1C[N@@]2CC[C@H]1C[C@@H]2[C@@H](O)c1ccnc2ccc(OC)cc12 [Quinidine]
- inhibition at 10 µM (CYP2D6): 92.7%

Structure (SMILES): Oc1ccc(-n2nc3ccc(O)cc3c2Cl)cc1 [Compound K-101]
- Reporter gene assay raw data, ERa (ERα; Log M -6, first ERa data block (head r2)): 104.545 and 98.5711 and 90.2001 and 86.8078
- Reporter gene assay raw data, ERa (ERα; Log M -6, second ERa data block (head r34)): 95.025 and 94.1762 and 88.9253 and 94.8982
- Reporter gene assay raw data, ERa (ERα; Log M -6.47756, first ERa data block (head r2)): 85.5888 and 84.856 and 83.9539 and 86.1821
- Reporter gene assay raw data, ERa (ERα; Log M -6.47756, second ERa data block (head r34)): 88.8265 and 82.9979 and 83.8682 and 89.3798
- Reporter gene assay raw data, ERa (ERα; Log M -6.95468, first ERa data block (head r2)): 74.2269 and 77.1348 and 79.6996 and 75.9439
- Reporter gene assay raw data, ERa (ERα; Log M -6.95468, second ERa data block (head r34)): 78.2124 and 79.7922 and 76.8721 and 73.4179
- Reporter gene assay raw data, ERa (ERα; Log M -7.4318, first ERa data block (head r2)): 58.4425 and 53.4049 and 54.6387 and 66.4913
- Reporter gene assay raw data, ERa (ERα; Log M -7.4318, second ERa data block (head r34)): 66.1364 and 63.6537 and 63.2155 and 63.5605
- Reporter gene assay raw data, ERa (ERα; Log M -7.91009, first ERa data block (head r2)): 54.5242 and 53.4131 and 49.5391 and 50.4679
- Reporter gene assay raw data, ERa (ERα; Log M -7.91009, second ERa data block (head r34)): 55.1309 and 61.6988 and 46.1658 and 50.4053
- Reporter gene assay raw data, ERa (ERα; Log M -8.3851, first ERa data block (head r2)): 36.2798 and 37.8765 and 41.0912 and 38.4728
- Reporter gene assay raw data, ERa (ERα; Log M -8.3851, second ERa data block (head r34)): 40.2636 and 45.8507 and 39.6541 and 35.9505
- Reporter gene assay raw data, ERa (ERα; Log M -8.86328, first ERa data block (head r2)): 20.0299 and 22.3737 and 21.1668 and 19.8353
- Reporter gene assay raw data, ERa (ERα; Log M -8.86328, second ERa data block (head r34)): 25.3166 and 18.7166 and 21.7026 and 19.2485
- Reporter gene assay raw data, ERa (ERα; Log M -9.34008, first ERa data block (head r2)): 7.216 and 7.17 and 5.351 and 7.624
- Reporter gene assay raw data, ERa (ERα; Log M -9.34008, second ERa data block (head r34)): 6.164 and 5.9134 and 5.736 and 5.474
- Reporter gene assay raw data, ERa (ERα; Log M -9.81816, first ERa data block (head r2)): 1.823 and 1.931 and 1.019 and 2.136
- Reporter gene assay raw data, ERa (ERα; Log M -9.81816, second ERa data block (head r34)): 0.6247 and 1.953 and 0.3211 and 0.779
- Reporter gene assay raw data, ERa (ERα; Log M -10.2941, first ERa data block (head r2)): 1.733 and 1.446 and -0.6404 and -0.6096
- Reporter gene assay raw data, ERa (ERα; Log M -10.2941, second ERa data block (head r34)): -0.6765 and 0.406 and -1.087 and 0.2814
- Reporter gene assay raw data, ERa (ERα; Log M -10.7721, first ERa data block (head r2)): -0.886 and -0.01848 and -1.926 and -0.988
- Reporter gene assay raw data, ERa (ERα; Log M -10.7721, second ERa data block (head r34)): -1.593 and -1.3667 and -0.9474 and 0.114
- Reporter gene assay raw data, ERa (ERα; Log M -11.248, first ERa data block (head r2)): -1.205 and 0.7176 and 0.3903 and 0.3615
- Reporter gene assay raw data, ERa (ERα; Log M -11.248, second ERa data block (head r34)): -1.908 and -0.2669 and 0.1993 and -0.8382
- ERa reporter gene assay raw data (response) (ERα; Log M -13, four replicate columns per compound): 0.8253 and -0.8253 and 1.478 and -1.478
- Reporter gene assay raw data, ERb (ERβ; Log M -6): 120.988 and 116.157 and 143.98 and 147.219
- ERb reporter gene assay raw data (response) (ERβ; Log M -6): 111.44 and 122.263 and 112.615 and 103.371
- Reporter gene assay raw data, ERb (ERβ; Log M -6.47756): 114.841 and 114.867 and 137.295 and 151.298
- ERb reporter gene assay raw data (response) (ERβ; Log M -6.47756): 99.9004 and 104.917 and 98.5023 and 107.756
- Reporter gene assay raw data, ERb (ERβ; Log M -6.95468): 124.443 and 116.848 and 139.382 and 142.558
- ERb reporter gene assay raw data (response) (ERβ; Log M -6.95468): 103.919 and 109.742 and 107.029 and 112.5
- Reporter gene assay raw data, ERb (ERβ; Log M -7.4318): 110.594 and 113.713 and 119.524 and 142.929
- ERb reporter gene assay raw data (response) (ERβ; Log M -7.4318): 106.837 and 108.962 and 105.441 and 101.954
- Reporter gene assay raw data, ERb (ERβ; Log M -7.91009): 112.17 and 111.487 and 138.169 and 129.452
- ERb reporter gene assay raw data (response) (ERβ; Log M -7.91009): 109.149 and 102.176 and 94.3567 and 106.552
- Reporter gene assay raw data, ERb (ERβ; Log M -8.3851): 117.284 and 114.634 and 116.673 and 134.281
- ERb reporter gene assay raw data (response) (ERβ; Log M -8.3851): 104.39 and 105.189 and 99.3517 and 108.832
- Reporter gene assay raw data, ERb (ERβ; Log M -8.86328): 116.233 and 118.325 and 116.611 and 129.233
- ERb reporter gene assay raw data (response) (ERβ; Log M -8.86328): 100.866 and 91.0385 and 99.5048 and 94.2764
- Reporter gene assay raw data, ERb (ERβ; Log M -9.34008): 83.1588 and 87.5707 and 97.8302 and 99.1529
- ERb reporter gene assay raw data (response) (ERβ; Log M -9.34008): 78.6235 and 76.3041 and 74.4798 and 84.9468
- Reporter gene assay raw data, ERb (ERβ; Log M -9.81816): 46.3463 and 45.2097 and 53.3712 and 57.2512
- ERb reporter gene assay raw data (response) (ERβ; Log M -9.81816): 51.4383 and 42.8216 and 46.1589 and 42.3832
- Reporter gene assay raw data, ERb (ERβ; Log M -10.2941): 13.5511 and 13.5131 and 21.4772 and 19.6971
- ERb reporter gene assay raw data (response) (ERβ; Log M -10.2941): 11.6805 and 12.8501 and 11.4455 and 13.5515
- Reporter gene assay raw data, ERb (ERβ; Log M -10.7721): 2.426 and 2.349 and 4.55 and 3.395
- ERb reporter gene assay raw data (response) (ERβ; Log M -10.7721): 3.239 and 2.8663 and 1.689 and 3.053
- Reporter gene assay raw data, ERb (ERβ; Log M -11.248): 1.344 and 1.212 and 1.016 and 0.8144
- ERb reporter gene assay raw data (response) (ERβ; Log M -11.248): 2.211 and 0.8495 and 0.02026 and 1.717
- ERb reporter gene assay raw data (response) (ERβ; Log M -13): 0.5566 and -0.5566 and 0.8119 and -0.8119

Structure (SMILES): CC(=O)N1CCN(c2ccc(OCC3COC(Cn4ccnc4)(c4ccc(Cl)cc4Cl)O3)cc2)CC1 (stereo not shown) [Ketoconazole]
- inhibition at 10 µM (CYP3A4; CYP Inhibition Percentage CYP3A4-M): 95.5%
- inhibition at 10 µM (CYP3A4; CYP Inhibition Percentage CYP3A4-T): 92.5%

Structure (SMILES): CN1CCC[C@@H]1CCO[C@](C)(c1ccccc1)c1ccc(Cl)cc1 [Clemastine, Clemastine fumarate]
- OL processes wrapping axons [1]: significant increase

Structure (SMILES): CC(=O)CC(c1ccccc1)c1c(O)c2ccccc2oc1=O (stereo not shown) [Wafarine]
- % Remaining at 6 hr in Human Plasma [2]: 111.24%
- Protein Binding (% Bound) Mouse [3]: 93.11%
- Protein Binding (% Bound) Human [4]: 98.68%
